Assay results: patent US5744462A, “Steroids useful as anti-cancer and anti-obesity agents” (Research Corporation Technologies, Inc., priority 1995, dated 1998)
Where “and” joins values, the source holds several entries; their conditions need not be identical. Identical values can stand only once. Entries after “also recorded” stand apart in the source; their conditions may differ.

What was measured:
[1] = Liver weight after three weeks of diet treatment; type: in vivo, mouse (female Balb/c); settings: 0.25% of diet; for LIVER WEIGHT: control 0.057 ± 0.006, DHEA p < 0.05, clofibrate p < 0.002 vs control; for liver weight, in words: mice
Protocol: (§1) Female Balb/c mice were housed in polycarbonate cages (6/mice/cage) in animal quarters maintained at 24°±1° C. with 12 hours of light and 12 hours of dark each day. The mice were placed on a diet containing either DHEA, 8354, A, B clofibrate or with no addition. Three weeks later the mice were killed, the livers were perfused with cold saline, weighed, and 5% liver homogenates were prepared for the determination of catalase activity by the spectrophotometric method of Luck (H. Luck, in Method in Enzyme Analysis, H. U. Bergmeyer, Ed. (Verlag Chemie, Weinheim/Bergstrasse, Germany, 1965)). Total protein was measured by the method of Lowry, et al. (O. H. Lowry, N. J. Rosebrough, A. L. Farr, R. J. Randall, J. Biol. Chem., 193, 265 (1951)).

liver catalase = assay: Liver catalase activity after three weeks of diet treatment; type: in vivo, mouse (female Balb/c); settings: for CATALASE ACTIVITY / catalase activity, in words: 0.25% of diet; for CATALASE ACTIVITY: control 31.1 ± 6.7, DHEA p < 0.05, clofibrate p < 0.001 vs control; for catalase activity, in words: mice
Protocol: as §1

[2] = in vivo; cited from earlier work
[3] = tested on: mouse epidermal DNA (TPA stimulated 3H-thymidine incorporation); assay: TPA stimulation of 3H-thymidine incorporation in epidermis, topical steroid; type: in vivo, mouse (A/J); settings: no steroid 66, TPA alone 174
Protocol: (§2) Tumor promoters, such as TPA, stimulate hyperplasia and DNA synthesis when applied to the skin, and it is believed that this stimulation is an important step in the enhancement of tumorigenesis.
Incorporation of ^3 H-thymidine into A/J mouse epidermal DNA was determined as described in Pashko, L. L., Schwartz, A. G., Abou-Gharbia, M. and Swern, D. (1981), Inhibition of DNA synthesis in mouse epidermis and breast epithelium by dehydroepiandrosterone and related steroids, Carcinogenesis, 2, 717-721. Values are mean±SD for 3 separately treated mice in each group 20 hours after TPA application. DHEA or testosterone was added topically in 0.2 ml acetone one hour before TPA addition.

mouse skin DNA = assay: (3H) DMBA binding to skin DNA; type: in vivo, mouse (A/J); settings: for effect on 3H-DMBA binding to skin DNA: oral, mice, doses well below 400 mg/kg
[4] = Body weight and food consumption in the DMBA binding experiment; type: in vivo, mouse; settings: two weeks of feeding
Protocol: Binding of [^3 H]DMBA to mouse skin DNA was determined as described in Pashko, L. L., and Schwartz, A. G. (1983), Effect of food restriction, dehydroepiandrosterone, or obesity on the binding of ^3 H-7,12-dimethylbenz(a)anthracene to mouse skin DNA, J. Gerontol., 38, 8-12. Values are mean±SD for 3 individual determinations, with pooled tissue from 2 mice used for each determination. DHEA or testosterone (400 ug in 0.2 ml acetone) was applied to the skin one hour before [^3 H]DMBA. The mean weight of the food restricted mice was 18.5±1.0 gm, n=6, of the ad libitum fed, 27.4±1.0 gm, n=6, of the ad libitum fed treated with DHEA, 28.2±0.9 gm, n=6, and of the ad libitum fed treated with testosterone, 28.3±0.9 gm, n=6, following two weeks of feeding. The average food consumed was, in gm/mouse/day, 2.2, 3.8, 3.8 and 4.0 for the food restricted, ad libitum fed, ad libitum fed plus DHEA, and ad libitum fed plus testosterone groups, respectively.

[5] = biological target: purified bovine adrenal G6PDH (Bos taurus, UniProt F1MMK2); assay: G6PDH inhibition test; type: biochemical; settings: individual determinations; for inhibition at 10 µM / inhibition at 1 µM / inhibition at 0.1 µM: read-out: Percent Inhibition of G6PDH
Chain of purified bovine adrenal G6PDH (F1MMK2 31-70): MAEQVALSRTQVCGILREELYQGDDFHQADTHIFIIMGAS
Chain of purified bovine adrenal G6PDH (F1MMK2 101-575): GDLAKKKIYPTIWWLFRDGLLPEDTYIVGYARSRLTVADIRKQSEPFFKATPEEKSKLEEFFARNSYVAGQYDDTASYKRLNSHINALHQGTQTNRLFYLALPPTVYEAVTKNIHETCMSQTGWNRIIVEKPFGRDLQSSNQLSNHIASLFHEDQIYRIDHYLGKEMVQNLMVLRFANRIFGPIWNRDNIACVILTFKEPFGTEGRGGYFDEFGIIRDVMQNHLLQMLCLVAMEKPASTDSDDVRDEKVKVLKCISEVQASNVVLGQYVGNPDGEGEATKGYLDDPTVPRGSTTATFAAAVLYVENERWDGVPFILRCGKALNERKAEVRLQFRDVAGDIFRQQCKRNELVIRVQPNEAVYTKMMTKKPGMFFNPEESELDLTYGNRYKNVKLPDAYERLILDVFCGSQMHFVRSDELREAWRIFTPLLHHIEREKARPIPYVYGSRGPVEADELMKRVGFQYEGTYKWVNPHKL
Excerpt: The compound listed below are screened as inhibitors of purified bovine adrenal G6PDH activity as one predictor of cancer preventive action. The assay for testing the inhibition of purified bovine adrenal G6PDH is according to the procedure by Oertell, G. W. and Rebelein, I. in Biochem. Biophys. Acta, 184, 459-460 (1969).

[6] = tested on: mouse epidermis (TPA stimulated 3H-thymidine incorporation); assay: TPA stimulation of 3H-thymidine incorporation in mouse epidermis, oral steroid; type: in vivo, mouse (male ICR)
Protocol: as §2
Male ICR mice were orally intubated with steroid suspended in sesame oil (0.5 ml/mouse) at the indicated dose. Mice not receiving steroid were given sesame oil alone. One hour later mice received topical application of TPA and 20 hours later the rate of ^3 H-thymidine incorporation into the epidermis was determined as described in Pashko, L. L., Schwartz, A. G., Abou-Gharbia, M., and Swern, D. (1981), Inhibition of DNA synthesis in mouse epidermis and breast epithelium by dehydroepiandrosterone and related steroids, Carcinogenesis, 2,-717-721.
Experimental conditions are the same as in Table 3.

[7] = Estrogenic and anti-estrogenic activity, uterine weight; type: in vivo, rat (female CD); settings: 60 mg/kg s.c. for 3 days; control 2.02 ± 0.28; DHEA significantly greater than control, p < .001
Protocol: Estrogenic and Anti-Estrogenic Activity
Female CD rats, 26-27 days old, were injected subcutaneously for 3 days with one of the compounds of the present invention at 60 mg/kg in propylene glycol. Controls received propylene glycol alone. On the 4th day, the rats were killed and the uteri were dissected out and weighed.

[8] = Anti-obesity action, body weight, male A/J mice; type: in vivo, mouse (male A/J); settings: 0.45% in diet
Protocol: Male A/J (5 weeks old) mice were obtained from the
Jackson Laboratory and were housed in polycarbonate cages (6
mice/cage) in animal quarters maintained at 24 ± 1° C. with 12
hours of light and 12 hours of darkness each day. One week
after arrival, the mice were placed on a diet containing
either DHEA, 8353, or without steroid. Animals were weighed

[9] = Estrogenic / androgenic side-effects, general statements; settings: in vivo
[10] = Table 3, oral 25 mg/kg, no steroid 70.2, TPA alone 154
[11] = Table 3, oral 50 mg/kg, no steroid 70.2, TPA alone 154
[12] = Table 3, oral 100 mg/kg, no steroid 70.2, TPA alone 154

SMILES | LIVER WEIGHT [1] [gm/gm body weight] | liver weight, in words [1] | CATALASE ACTIVITY (liver catalase) [Units per mg protein] | catalase activity, in words (liver catalase) | effect on liver (type of hepatomegaly) [2] | inhibition at 10 µM ([5]; 10^-5 M) [%] | Percent Inhibition of G6PDH ([5]; 10^-6 M) | inhibition at 1 µM ([5]; 10^-6 M) [%] | Percent Inhibition of G6PDH ([5]; 10^-7 M) [%] | inhibition at 0.1 µM ([5]; 10^-7 M) [%] | Percent Inhibition of G6PDH ([5]; 10^-5 M) | effect on 3H-DMBA binding to skin DNA (mouse skin DNA) | further results
CCOC(=O)C(C)(C)Oc1ccc(Cl)cc1 [Clofibrate, clofibrate, reference compound] | 0.084 ± 0.006 | increased liver weight; also recorded: hepatomegaly | 92.1 ± 8.9 | stimulated catalase activity | Typical peroxisome proliferators |  |  |  |  |  |  |  | increase in liver catalase specific activity (liver catalase; 0.25%, vs control): threefold
CCC1(c2ccccc2)C(=O)NC(=O)NC1=O [phenobarbital] |  |  |  |  | stimulate proliferation of smooth endoplasmic reticulum in liver cells and induce microsomal drug metabolizing enzymes |  |  |  |  |  |  |  | 
C[C@]12CC[C@H]3[C@@H](CCC4=CC(=O)CC[C@@]43C)[C@@H]1CC[C@@H]2O [testosterone] |  |  |  |  |  |  |  |  |  |  |  |  | SPECIFIC ACTIVITY, TPA stimulated 3H-thymidine incorporation ([3]; topical 100 ug): 128 ± 13 cpm/ug DNA; SPECIFIC ACTIVITY, TPA stimulated 3H-thymidine incorporation ([3]; topical 400 ug): 142 ± 5.9 cpm/ug DNA; SPECIFIC ACTIVITY, (3H) DMBA binding to skin DNA (mouse skin DNA; 400 ug topical one hour before DMBA, ad libitum fed 116 ± 5.2): 164 ± 8.4 cpm/ug DNA; effect on rate of binding of 3H-DMBA to skin DNA (mouse skin DNA; topical, in words (Table 4)): without inhibitory effect; mean body weight ([4]; topical 400 ug, ad libitum fed 27.4±1.0): 28.3±0.9 gm; average food consumed ([4]; ad libitum fed 3.8): 4.0 gm/mouse/day
C[C@]12CCCCC1=CC[C@@H]1[C@@H]2CC[C@]2(C)C(=O)[C@](C)(F)C[C@@H]12 [F] |  |  |  |  |  | 82 | 69% | 66 | 34 | 28 |  |  | 
C[C@H]1C[C@H]2[C@@H]3CC=C4CCCC[C@]4(C)[C@H]3CC[C@]2(C)C1=O [D] |  |  |  |  |  | 44 | 20% | 13 |  |  | 47% |  | 
C[C@@H]1C[C@H]2[C@@H]3CC=C4CCCC[C@]4(C)[C@H]3CC[C@]2(C)C1=O [C] |  |  |  |  |  | 54 | 31% | 33 | 24 | 20 | 52% |  | 
C[C@]12CCCCC1=CC[C@@H]1[C@@H]2CC[C@]2(C)C(=O)[C@H](O)C[C@@H]12 [Compound 8353] |  |  |  |  |  | 77 | 36% and 29% and 38% | 30 |  |  |  | inhibit ^3 H-DMBA binding to skin DNA | SPECIFIC ACTIVITY, TPA stimulated 3H-thymidine incorporation ([6]; Table 8, 75 mg/kg, p.o.): 15.9 ± 2.4 cpm/ug DNA; SPECIFIC ACTIVITY, TPA stimulated 3H-thymidine incorporation ([6]; Table 8, 150 mg/kg, p.o.): 14.0 ± 1.1 cpm/ug DNA; SPECIFIC ACTIVITY, TPA stimulated 3H-thymidine incorporation ([6]; Table 8, 200 mg/kg, p.o.): 14.3 ± 1.7 cpm/ug DNA; Mean Uterine Weight ± S.D. [7]: 2.15 ± 0.17 mg/100 gm body weight; mean weekly weight ± S.D. ([8]; week 0, control 23 ± 1.5): 23.3 ± 1.6 grams; mean weekly weight ± S.D. ([8]; week 1, control 25.0 ± 1.6): 21.1 ± 1.4 grams; mean weekly weight ± S.D. ([8]; week 2, control 27.0 ± 1.6): 21.9 ± 1.0 grams; mean weekly weight ± S.D. ([8]; week 3, control 27.3 ± 1.6): 23.6 ± 1.5 grams; mean weekly weight ± S.D. ([8]; week 4, control 27.5 ± 1.9): 23.5 ± 1.5 grams
C[C@]12CCCC[C@@H]1CC[C@@H]1[C@@H]2CC[C@]2(C)C(=O)[C@H](O)C[C@@H]12 [A] | 0.058 ± 0.004 | no effect on liver weight; also recorded: neither increased liver weight | 42.3 ± 7.2 | no effect on liver weight or catalase activity |  | 94 |  | 72 | 25 | 17 | 92% and 91% | inhibit ^3 H-DMBA binding to skin DNA | SPECIFIC ACTIVITY, TPA stimulated 3H-thymidine incorporation [6, 10]: 77.4 ± 10.4 cpm/ug DNA; SPECIFIC ACTIVITY, TPA stimulated 3H-thymidine incorporation [6, 11]: 35.2 ± 1.8 cpm/ug DNA; SPECIFIC ACTIVITY, TPA stimulated 3H-thymidine incorporation [6, 12]: 8.1 ± 4.1 cpm/ug DNA; estrogenic and androgenic side-effects [9]: lacking the estrogenic and androgenic side-effects of DHEA
C[C@]12CCCC[C@@H]1CC[C@@H]1[C@@H]2CC[C@]2(C)C(=O)[C@H](F)C[C@@H]12 [B] | 0.061 ± 0.002 | no effect on liver weight; also recorded: neither increased liver weight | 32.2 ± 6.0 | no effect on liver weight or catalase activity |  | 96 | 84% | 82 |  | 36 |  | inhibit ^3 H-DMBA binding to skin DNA | SPECIFIC ACTIVITY, TPA stimulated 3H-thymidine incorporation [6, 10]: 66.1 ± 9.8 cpm/ug DNA; SPECIFIC ACTIVITY, TPA stimulated 3H-thymidine incorporation [6, 11]: 25.6 ± 4.0 cpm/ug DNA; SPECIFIC ACTIVITY, TPA stimulated 3H-thymidine incorporation [6, 12]: 7.2 ± 3.8 cpm/ug DNA; estrogenic and androgenic side-effects [9]: lacking the estrogenic and androgenic side-effects of DHEA
Clc1ccc(C(c2ccc(Cl)cc2)C(Cl)(Cl)Cl)cc1 [DDT] |  |  |  |  | stimulate proliferation of smooth endoplasmic reticulum in liver cells and induce microsomal drug metabolizing enzymes |  |  |  |  |  |  |  | 
